{"source": "patent EP1326493B1", "about": "“AGROCHEMICAL COMPOSITION CONTAINING ACTIVITY-ENHANCING ADJUVANTS” (Syngenta Limited, priority 2000, dated 2002)", "key": {"[1]": {"test": "Dynamic surface tension, maximum bubble pressure method (Lauda MPT-2)", "format": "physicochemical", "experimental": "Dynamic surface tension can be measured using the maximum bubble pressure method. Various commercial instruments are available for measuring dynamic surface tension by the maximum bubble pressure method, for example the Lauda MPT-2 maximum bubble pressure instrument. The dynamic surface tension at 40msecs is determined from the maximum pressure in a bubble blown from a capillary inserted into a surfactant solution, for a bubble surface lifetime of 40msecs.\nThe dynamic surface tension measurements were carried out with a Lauda MPT-2 maximum bubble pressure tensiometer. The dynamic surface tension at 40 msecs was determined from the maximum pressure in a bubble blown from a capillary inserted into a surfactant solution, for a bubble surface lifetime of 40 msecs. The dynamic surface tensions were determined for solutions containing 0.1%, 0.2% or 0.5% by weight of the second adjuvant in deionised water at 20°C. For comparison, the dynamic surface tension of a 0.5% by weight solution of 2-ethylhexyl amine 8EO adjusted to pH4 with dilute hydrochloric acid (to protonate the amine) was also determined at 20°C."}, "Avena fatua (AVEFA)": {"system": "Avena fatua (AVEFA)", "test": "Field efficacy test of potassium glyphosate with adjuvants", "format": "in vivo", "settings": "potassium glyphosate + 0.2% adjuvant, mean across 100, 200, 400 and 600 g glyphosate acid/ha, 33 days after application", "text": "(§1) Potassium glyphosate, in combination with the adjuvants specified below in Table 3, was applied to Lolium perenne (LOLPE), Avena fatua (AVEFA) and Chenopodium album (CHEAL) drilled as rows in the field, at a spray application volume of […]. Application rates were 100, 200, 400 and 600 g glyphosate acid/ha and each treatment was replicated 3 times. Data (mean of the three replicates and across all rates) is presented for a visual assessment of % control carried out 33 days after application, where 0 = unaffected and 100% = complete kill Table 3."}, "[2]": {"system": "Chenopodium album (CHEAL)", "test": "Field efficacy test of potassium glyphosate with adjuvants", "format": "in vivo", "settings": "potassium glyphosate + 0.2% adjuvant, mean across 100, 200, 400 and 600 g glyphosate acid/ha, 33 days after application", "text": "as §1"}, "Lolium perenne (LOLPE)": {"system": "Lolium perenne (LOLPE)", "test": "Field efficacy test of potassium glyphosate with adjuvants", "format": "in vivo", "settings": "potassium glyphosate + 0.2% adjuvant, mean across 100, 200, 400 and 600 g glyphosate acid/ha, 33 days after application", "text": "as §1"}, "[3]": {"system": "Chenopodium album (CHEAL)", "test": "Glass-house comparative efficacy test of potassium glyphosate with adjuvants", "format": "in vivo", "settings": "potassium glyphosate 240 g acid equivalent/ha, 21 days after treatment", "experimental": "(§2) Potassium glyphosate was applied at 240 g glyphosate acid equivalent/ha to Chenopodium album (CHEAL), Echinochloa crus-galli (ECHCG) and Sorgham halepense (SORHA) plants grown in the glass-house. All treatments were made up in deionised water and applied using a tracksprayer with a 11002 nozzle at a spray application volume of […]. All treatments were replicated 4 times. After spraying the plants were laid out in a glass-house and maintained at a temperature of 24°C by day and 16°C by night. The Agrimul PG2067 and Synperonic PEL62 adjuvants were used in a proportion 0.2% w/v. The adjuvant 2-ethylhexyl amine 8EO was used at both 0.2%w/v and 0.3%w/v. The adjuvant Sodium dodecyl sulphate was used in a proportion of 0.3%w/v. When applied as binary blends all adjuvants were used in a proportion of 0.1%w/v except Sodium dodecyl sulphate which was applied at 0.2%w/v. A visual assessment of % control, where 0=unaffected and 100=complete kill, was carried out 21 days after treatment."}, "[4]": {"system": "Echinochloa crus-galli (ECHCG)", "test": "Glass-house comparative efficacy test of potassium glyphosate with adjuvants", "format": "in vivo", "settings": "potassium glyphosate 240 g acid equivalent/ha, 21 days after treatment", "experimental": "as §2"}, "[5]": {"system": "Sorgham halepense (SORHA)", "test": "Glass-house comparative efficacy test of potassium glyphosate with adjuvants", "format": "in vivo", "settings": "potassium glyphosate 240 g acid equivalent/ha, 21 days after treatment", "experimental": "as §2"}, "Daphnia magna": {"system": "Daphnia magna", "test": "Daphnia magna immobilisation ecotoxicity test", "format": "in vivo", "experimental": "The following ecotoxicity results were obtained for various alkyl amine alkoxylates using the following test method. First instar Daphnia magna (less than 24 hrs old), obtained from cultures were exposed to a range of concentrations of the test amine ethoxylates in hard blended water (160-180 mg CaCO3 /litre). 10 Daphnia magna were added to each vessel which were then placed at ∼20 degrees C on a 16/8 light/dark day. Organisms were assessed at 24 and 48 hours, the effect observed being immobilisation after gentle agitation. The EC50 values were calculated using a statistical package, the 95% confidence limits are quoted in brackets.\nThe amine ethoxylates were tested in the presence of potassium glyphosate in order to protonate the amine. […] The remaining adjuvants were tested in the absence of potassium glyphosate. It can be seen that the ecotoxicity of the alkyl amine alkoxylates 3 to 6 falling within the definition of the present invention was very much lower that that for the nearest previously known compounds 1 to 2. It will be appreciated that the higher the EC50 value, the lower the toxicity."}}}
{"compound": "2-ethylhexyl amine 8EO [Number 3]", "values": [{"measurement": "Dynamic Surface Tension at 40 msecs", "setting": "[1]; 0.5% by weight solution adjusted to pH4 with dilute hydrochloric acid, 20°C", "value": 64, "unit": "mNm^-1"}, {"measurement": "visual assessment of % control AVEFA", "setting": "Avena fatua (AVEFA)", "value": 68, "unit": "%"}, {"measurement": "visual assessment of % control CHEAL", "setting": "[2]", "value": 74, "unit": "%"}, {"measurement": "visual assessment of % control LOLPE", "setting": "Lolium perenne (LOLPE)", "value": 47, "unit": "%"}, {"measurement": "visual assessment of % control CHEAL", "setting": "[3]; single adjuvant 0.2%", "value": 59, "unit": "%"}, {"measurement": "visual assessment of % control ECHCG", "setting": "[4]; single adjuvant 0.2%", "value": 63, "unit": "%"}, {"measurement": "visual assessment of % control ECHCG", "setting": "[4]; single adjuvant 0.3%", "value": 64, "unit": "%"}, {"measurement": "visual assessment of % control SORHA", "setting": "[5]; single adjuvant 0.2%", "value": 74, "unit": "%"}, {"measurement": "visual assessment of % control SORHA", "setting": "[5]; single adjuvant 0.3%", "value": 75, "unit": "%"}]}
{"compound": "CCCCCCCCCCCCOS(=O)(=O)[O-].[Na+]", "note": "[Number 9, Sodium dodecyl sulphate, reference compound]", "values": [{"measurement": "Dynamic Surface Tension at 40 msecs", "setting": "[1]; 0.2% by weight in deionised water at 20°C", "value": 53, "unit": "mNm^-1"}, {"measurement": "Dynamic Surface Tension at 40 msecs", "setting": "[1]; 0.5% by weight in deionised water at 20°C", "value": 39, "unit": "mNm^-1"}, {"measurement": "visual assessment of % control ECHCG", "setting": "[4]; single adjuvant 0.3%", "value": 78, "unit": "%"}, {"measurement": "visual assessment of % control SORHA", "setting": "[5]; single adjuvant 0.3%", "value": 76, "unit": "%"}]}
{"compound": "CCCCCCCCCCCCOS(=O)(=O)O", "note": "[Number 9]", "values": [{"measurement": "EC50", "setting": "Daphnia magna; Daphnia magna, 48 hours, immobilisation, tested in the absence of potassium glyphosate, 95% confidence limits in brackets, read-out: Daphnia toxicity EC50", "value": 16, "unit": "µg/mL"}]}
{"compound": "O=C(O)CNCP(=O)([O-])O.[K+]", "note": "[Potassium glyphosate, reference compound]", "values": [{"measurement": "contribution to the daphnia toxicity", "setting": "Daphnia magna; potassium glyphosate itself", "value": "does not make a significant contribution"}, {"measurement": "visual assessment of % control CHEAL", "setting": "[3]; no adjuvant", "value": 3, "unit": "%"}, {"measurement": "visual assessment of % control ECHCG", "setting": "[4]; no adjuvant", "value": 48, "unit": "%"}, {"measurement": "visual assessment of % control SORHA", "setting": "[5]; no adjuvant", "value": 21, "unit": "%"}]}
